Test system: mice subjected to restraint stress
Test: Morris water maze learning test
Format: in vivo, male ICR mice
Conditions: mice after 6 hour restraint stress; TGA40S-containing diet from 3 weeks before, about 25 mg TGA40S (10 mg arachidonic acid) per mouse daily; five trials a day for 5 days; FIG. 1
Source text: The experimental groups consisted of 56 two- to three-month-old male ICR mice, divided into a control diet group (27 mice) and a TGA40S-containing diet group (29 mice), with the control diet or TGA40S-containing diet shown in Table 1 being given to each group for 3 weeks. Each group was further divided into non-restrained groups (non-restrained control diet group (13), non-restrained arachidonic acid (ARA) diet group (15)) and restrained groups (restrained control diet group (14), restrained ARA diet group ([…])). The restraining was accomplished using a wire mesh restraining tube, once for a 6 hour period three weeks after the start of feeding. The control diet or TGA40S-containing diet shown in Table 1 continued to be fed to each group for the remaining experiment period. The TGA40S used for the TGA40S-containing diet was the product obtained in Example 1. Since the daily ingestion was approximately 5 g per mouse, the daily intake of TGA40S was 25 mg per mouse. Also, since the total fatty acids bonded to the arachidonic acid-containing oils or fats (triglycerides) prepared in Example 1 included 40 wt % arachidonic acid, the daily intake of arachidonic acid was 10 mg per mouse. […] The time required for the mouse to reach the escape platform (escape latency time) was recorded as the learning index.

SMILES: CCCCC/C=C\C/C=C\C/C=C\C/C=C\CCCC(=O)O [arachidonic acid]
- learning ability (escape latency time, time required to reach the escape platform): exhibits an improving effect against decline in learning ability or cognitive ability as a result of stress

From patent publication US20070270493A1, “Composition with Preventive or Improvement Effect on Stress-Induced Brain Function Impairment and Related Symptoms or Diseases” (priority 2004, published 2007)
